Data as given in PubChem BioAssay AID1918998 (Molecular Pharmacology Branch, DTP, NCI, 2023).

Tested on: 521955-158-R2-J5-PDC complex spheroid growth
Assay: Anticancer human tumor 521955-158-R2-J5-PDC patient-derived pancreatic carcinoma cell line growth inhibition [AhR]
Settings: for IC50: curve of first compound; for viability, T/C: stronger effect = lower value
Procedure, shortened: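 Spheroids combined tumor cells with HUVEC endothelial cells and human MSCs as stroma. AhR antagonists were paired with standard or investigational drugs, each dosed in half-log steps down from near clinical Cmax, or from 10 microM where Cmax was unknown.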

[1] = second compound 0.1 µM, first compound 0.00949 µM
[2] = second compound 0.1 µM, first compound 0.03 µM
[3] = second compound 0.1 µM, first compound 0.0949 µM
[4] = second compound 0.1 µM, first compound 0.3 µM
[5] = second compound 0.316 µM, first compound 0.00949 µM
[6] = second compound 0.316 µM, first compound 0.03 µM
[7] = second compound 0.316 µM, first compound 0.0949 µM
[8] = second compound 0.316 µM, first compound 0.3 µM
[9] = second compound 1 µM, first compound 0.00949 µM
[10] = second compound 1 µM, first compound 0.03 µM
[11] = second compound 1 µM, first compound 0.0949 µM
[12] = second compound 1 µM, first compound 0.3 µM
[13] = second compound 3.16 µM, first compound 0.00949 µM
[14] = second compound 3.16 µM, first compound 0.03 µM
[15] = second compound 3.16 µM, first compound 0.0949 µM
[16] = second compound 3.16 µM, first compound 0.3 µM
[17] = second compound 10 µM, first compound 0.00949 µM
[18] = second compound 10 µM, first compound 0.03 µM
[19] = second compound 10 µM, first compound 0.0949 µM
[20] = second compound 10 µM, first compound 0.3 µM
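For viability, T/C in this document: spheroids mix tumor cells with HUVEC endothelium and human MSC stroma; luminescence taken as viability surrogate after a week of drug exposure.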

CC1COCCN1c1cc(C2(S(C)(=N)=O)CC2)nc(-c2ccnc3[nH]ccc23)n1 (stereo not given) + Cc1ccccc1N=Nc1ccc(NC(=O)c2ccnn2C)c(C)c1
IC50 (second compound 0.1 µM): 2050 nM | IC50 (second compound 0.316 µM): 2360 nM | IC50 (second compound 1 µM): 2540 nM | IC50 (second compound 3.16 µM): 2520 nM | IC50 (second compound 10 µM): 2550 nM | viability, T/C (second compound 0.1 µM, first compound 0.0316 µM): 93.3% | viability, T/C (second compound 0.1 µM, first compound 0.1 µM): 84.7% | viability, T/C (second compound 0.1 µM, first compound 0.316 µM): 86.6% | viability, T/C (second compound 0.1 µM, first compound 1 µM): 86.2% | viability, T/C (second compound 0.1 µM, first compound 3.16 µM): 28.1% | viability, T/C (second compound 0.1 µM, first compound 10 µM): 15.9% | viability, T/C (second compound 0.316 µM, first compound 0.0316 µM): 104% | viability, T/C (second compound 0.316 µM, first compound 0.1 µM): 112% | viability, T/C (second compound 0.316 µM, first compound 0.316 µM): 100% | viability, T/C (second compound 0.316 µM, first compound 1 µM): 101% | viability, T/C (second compound 0.316 µM, first compound 3.16 µM): 32.8% | viability, T/C (second compound 0.316 µM, first compound 10 µM): 14% | viability, T/C (second compound 1 µM, first compound 0.0316 µM): 117% | viability, T/C (second compound 1 µM, first compound 0.1 µM): 110% | viability, T/C (second compound 1 µM, first compound 0.316 µM): 136% | viability, T/C (second compound 1 µM, first compound 1 µM): 109% | viability, T/C (second compound 1 µM, first compound 3.16 µM): 36.2% | viability, T/C (second compound 1 µM, first compound 10 µM): 14.8% | viability, T/C (second compound 3.16 µM, first compound 0.0316 µM): 123% | viability, T/C (second compound 3.16 µM, first compound 0.1 µM): 135% | viability, T/C (second compound 3.16 µM, first compound 0.316 µM): 131% | viability, T/C (second compound 3.16 µM, first compound 1 µM): 120% | viability, T/C (second compound 3.16 µM, first compound 3.16 µM): 32.8% | viability, T/C (second compound 3.16 µM, first compound 10 µM): 15.5% | viability, T/C (second compound 10 µM, first compound 0.0316 µM): 130% | viability, T/C (second compound 10 µM, first compound 0.1 µM): 149% | viability, T/C (second compound 10 µM, first compound 0.316 µM): 139% | viability, T/C (second compound 10 µM, first compound 1 µM): 124% | viability, T/C (second compound 10 µM, first compound 3.16 µM): 32.9% | viability, T/C (second compound 10 µM, first compound 10 µM): 16.1%

Nc1ncn(C2CC(O)C(CO)S2)c(=O)n1 (stereo not given) + Cc1ccccc1N=Nc1ccc(NC(=O)c2ccnn2C)c(C)c1
IC50 (second compound 0.1 µM): > 300 nM | IC50 (second compound 0.316 µM): > 300 nM | IC50 (second compound 1 µM): > 300 nM | IC50 (second compound 3.16 µM): > 300 nM | IC50 (second compound 10 µM): > 300 nM | viability, T/C (second compound 0.1 µM, first compound 0.000949 µM): 125% | viability, T/C (second compound 0.1 µM, first compound 0.003 µM): 103% | viability, T/C [1]: 104% | viability, T/C [2]: 104% | viability, T/C [3]: 98% | viability, T/C [4]: 73% | viability, T/C (second compound 0.316 µM, first compound 0.000949 µM): 92.9% | viability, T/C (second compound 0.316 µM, first compound 0.003 µM): 132% | viability, T/C [5]: 107% | viability, T/C [6]: 100% | viability, T/C [7]: 80.5% | viability, T/C [8]: 78.2% | viability, T/C (second compound 1 µM, first compound 0.000949 µM): 100% | viability, T/C (second compound 1 µM, first compound 0.003 µM): 146% | viability, T/C [9]: 108% | viability, T/C [10]: 91% | viability, T/C [11]: 99.9% | viability, T/C [12]: 102% | viability, T/C (second compound 3.16 µM, first compound 0.000949 µM): 135% | viability, T/C (second compound 3.16 µM, first compound 0.003 µM): 145% | viability, T/C [13]: 125% | viability, T/C [14]: 130% | viability, T/C [15]: 105% | viability, T/C [16]: 109% | viability, T/C (second compound 10 µM, first compound 0.000949 µM): 176% | viability, T/C (second compound 10 µM, first compound 0.003 µM): 170% | viability, T/C [17]: 157% | viability, T/C [18]: 139% | viability, T/C [19]: 125% | viability, T/C [20]: 127%

O=C(C=Cn1cnc(-c2cc(C(F)(F)F)cc(C(F)(F)F)c2)n1)NNc1cnccn1 + Cc1ccccc1N=Nc1ccc(NC(=O)c2ccnn2C)c(C)c1
IC50 (second compound 0.1 µM): 40.1 nM | IC50 (second compound 0.316 µM): < 9.49 nM | IC50 (second compound 1 µM): 18.5 nM | IC50 (second compound 3.16 µM): < 9.49 nM | IC50 (second compound 10 µM): 140 nM | viability, T/C [1]: 59% | viability, T/C [2]: 50.4% | viability, T/C [3]: 41.2% | viability, T/C [4]: 39.5% | viability, T/C (second compound 0.1 µM, first compound 0.949 µM): 40.2% | viability, T/C (second compound 0.1 µM, first compound 3 µM): 21.5% | viability, T/C [5]: 54.8% | viability, T/C [6]: 43.1% | viability, T/C [7]: 39.3% | viability, T/C [8]: 46.1% | viability, T/C (second compound 0.316 µM, first compound 0.949 µM): 40.8% | viability, T/C (second compound 0.316 µM, first compound 3 µM): 24.6% | viability, T/C [9]: 55.8% | viability, T/C [10]: 42.6% | viability, T/C [11]: 45.1% | viability, T/C [12]: 36.2% | viability, T/C (second compound 1 µM, first compound 0.949 µM): 38.4% | viability, T/C (second compound 1 µM, first compound 3 µM): 31.8% | viability, T/C [13]: 53.8% | viability, T/C [14]: 51.4% | viability, T/C [15]: 47.6% | viability, T/C [16]: 40.8% | viability, T/C (second compound 3.16 µM, first compound 0.949 µM): 50.2% | viability, T/C (second compound 3.16 µM, first compound 3 µM): 29.8% | viability, T/C [17]: 91% | viability, T/C [18]: 66.2% | viability, T/C [19]: 47.6% | viability, T/C [20]: 53.4% | viability, T/C (second compound 10 µM, first compound 0.949 µM): 38.2% | viability, T/C (second compound 10 µM, first compound 3 µM): 32.9%
